Assay results: ChEMBL document CHEMBL4118132, “Novel 5-methyl-2-phenylphenanthridium derivatives as FtsZ-targeting antibacterial agents from structural simplification of natural product sanguinarine” (2018)
Calls of active or inactive are those of the source. No cut-off for these calls is given here.

Experiments:
Bacillus subtilis [1] = assay: Potency index, ratio of ciprofloxacin MIC to test compound MIC for penicillin-susceptible Bacillus subtilis ATCC 9372; assay type: functional
Staphylococcus aureus [2] = assay: Potency index, ratio of oxacillin sodium MIC to test compound MIC for penicillin-resistant Staphylococcus aureus clinical isolate; assay type: functional
Pseudomonas aeruginosa = assay: Antibacterial activity against penicillin-susceptible Pseudomonas aeruginosa ATCC 27853 after 24 hrs by broth microdilution method; assay type: functional; details: ATCC 27853, 24 h
Streptococcus pyogenes [3] = assay: Antibacterial activity against penicillin-susceptible Streptococcus pyogenes after 24 hrs by broth microdilution method; assay type: functional
Staphylococcus aureus [4] = assay: Bactericidal activity against penicillin-susceptible Staphylococcus aureus ATCC 25923 assessed as bacterial levels at 32 ug/ml after 24 hrs by time-kill assay (reference value: 6.13 to 8.34 log10CFU/ml); assay type: functional
Staphylococcus aureus [5] = assay: Bactericidal activity against penicillin-susceptible Staphylococcus aureus ATCC 25923 assessed as bacterial levels at 8 ug/ml after 12 hrs by time-kill assay (reference value: 6.13 to 8.01 log10CFU/ml); assay type: functional
Staphylococcus aureus [6] = assay: Antibacterial activity against penicillin-susceptible Staphylococcus aureus ATCC 25923 after 24 hrs by broth microdilution method; assay type: functional; details: ATCC 25923, 24 h
[7] = biological target: T1, Cell division protein FtsZ (Bacillus subtilis) (UniProt A5Z1V5); assay: Inhibition of FtsZ in penicillin-susceptible Bacillus subtilis ATCC 9372 assessed as increase in length of bacteria at 0.125 ug/ml after 5 hrs by phase-contrast light microscopic method
T1 sequence (whole entry): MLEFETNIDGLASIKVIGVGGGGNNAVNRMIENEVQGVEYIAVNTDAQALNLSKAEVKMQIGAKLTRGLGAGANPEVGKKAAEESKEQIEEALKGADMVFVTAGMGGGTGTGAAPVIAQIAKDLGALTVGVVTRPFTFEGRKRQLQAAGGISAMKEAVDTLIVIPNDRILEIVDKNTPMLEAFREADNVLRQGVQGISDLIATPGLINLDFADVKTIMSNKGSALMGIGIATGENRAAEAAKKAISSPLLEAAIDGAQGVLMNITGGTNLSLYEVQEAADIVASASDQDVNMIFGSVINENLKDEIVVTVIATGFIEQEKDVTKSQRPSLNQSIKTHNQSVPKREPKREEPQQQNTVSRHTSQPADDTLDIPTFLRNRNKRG

Staphylococcus aureus [8] = assay: Antibacterial activity against penicillin-resistant Staphylococcus aureus clinical isolate after 24 hrs by broth microdilution method; assay type: functional
Staphylococcus aureus [9] = assay: Potency index, ratio of oxacillin sodium MIC to test compound MIC for penicillin-susceptible Staphylococcus aureus ATCC 25923; assay type: functional
Staphylococcus aureus [10] = assay: Bactericidal activity against penicillin-susceptible Staphylococcus aureus ATCC 25923 assessed as bacterial levels at 32 ug/ml after 4 hrs by time-kill assay (reference value: 6.13 to 6.71 log10CFU/ml); assay type: functional
[11] = tested on: Staphylococcus epidermidis; assay: Potency index, ratio of oxacillin sodium MIC to test compound MIC for penicillin-resistant Staphylococcus epidermidis clinical isolate; assay type: functional
Staphylococcus aureus [12] = assay: Bactericidal activity against penicillin-susceptible Staphylococcus aureus ATCC 25923 assessed as bacterial levels at 8 ug/ml after 2 hrs by time-kill assay (reference value: 6.13 to 6.17 log10CFU/ml); assay type: functional
Staphylococcus aureus [13] = assay: Bactericidal activity against penicillin-susceptible Staphylococcus aureus ATCC 25923 assessed as bacterial levels at 32 ug/ml after 12 hrs by time-kill assay (reference value: 6.13 to 8.01 log10CFU/ml); assay type: functional
Staphylococcus aureus [14] = assay: Bactericidal activity against penicillin-susceptible Staphylococcus aureus ATCC 25923 assessed as bacterial levels at 8 ug/ml after 24 hrs by time-kill assay (reference value: 6.13 to 8.34 log10CFU/ml); assay type: functional
Staphylococcus aureus [15] = assay: Bactericidal activity against penicillin-susceptible Staphylococcus aureus ATCC 25923 assessed as bacterial levels at 16 ug/ml after 2 hrs by time-kill assay (reference value: 6.13 to 6.17 log10CFU/ml); assay type: functional
Bacillus pumilus = assay: Antibacterial activity against penicillin-susceptible Bacillus pumilus ATCC 63202 after 24 hrs by broth microdilution method; assay type: functional; details: ATCC 63202, 24 h
Staphylococcus aureus [16] = assay: Bactericidal activity against penicillin-susceptible Staphylococcus aureus ATCC 25923 assessed as bacterial levels at 16 ug/ml after 4 hrs by time-kill assay (reference value: 6.13 to 6.71 log10CFU/ml); assay type: functional
Staphylococcus aureus [17] = assay: Bactericidal activity against penicillin-susceptible Staphylococcus aureus ATCC 25923 assessed as bacterial levels at 8 ug/ml after 1 hr by time-kill assay (reference value: 6.13 to 6.14 log10CFU/ml); assay type: functional
[18] = biological target: T2, Cell division protein FtsZ (Staphylococcus aureus) (UniProt P0A031); assay: Inhibition of FtsZ in penicillin-susceptible Staphylococcus aureus ATCC 25923 assessed as increase in length of bacteria at 0.125 ug/ml after 5 hrs by phase-contrast light microscopic method
T2 sequence (whole entry): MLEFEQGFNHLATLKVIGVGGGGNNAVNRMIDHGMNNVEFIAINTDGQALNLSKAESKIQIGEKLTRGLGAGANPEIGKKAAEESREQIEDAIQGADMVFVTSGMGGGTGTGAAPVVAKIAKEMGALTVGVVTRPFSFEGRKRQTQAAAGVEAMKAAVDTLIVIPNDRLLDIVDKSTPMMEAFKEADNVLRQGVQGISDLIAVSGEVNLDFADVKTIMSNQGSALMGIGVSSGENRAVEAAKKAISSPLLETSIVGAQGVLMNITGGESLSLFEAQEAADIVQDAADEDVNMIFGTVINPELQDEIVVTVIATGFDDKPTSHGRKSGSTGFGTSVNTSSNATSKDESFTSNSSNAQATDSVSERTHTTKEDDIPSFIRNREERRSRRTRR

Staphylococcus aureus [19] = assay: Bactericidal activity against penicillin-susceptible Staphylococcus aureus ATCC 25923 assessed as bacterial levels at 16 ug/ml after 12 hrs by time-kill assay (reference value: 6.13 to 8.01 log10CFU/ml); assay type: functional
Staphylococcus aureus [20] = assay: Bactericidal activity against penicillin-susceptible Staphylococcus aureus ATCC 25923 assessed as bacterial levels at 8 ug/ml after 4 hrs by time-kill assay (reference value: 6.13 to 6.71 log10CFU/ml); assay type: functional
Streptococcus pyogenes [21] = assay: Potency index, ratio of oxacillin sodium MIC to test compound MIC for penicillin-resistant Streptococcus pyogenes; assay type: functional
Bacillus subtilis [22] = assay: Potency index, ratio of oxacillin sodium MIC to test compound MIC for penicillin-susceptible Bacillus subtilis ATCC 9372; assay type: functional
[23] = tested on: Staphylococcus epidermidis; assay: Potency index, ratio of ciprofloxacin MIC to test compound MIC for penicillin-resistant Staphylococcus epidermidis clinical isolate; assay type: functional
Bacillus subtilis [24] = assay: Antibacterial activity against penicillin-susceptible Bacillus subtilis ATCC 9372 after 24 hrs by broth microdilution method; assay type: functional; details: ATCC 9372, 24 h
Streptococcus pyogenes [25] = assay: Potency index, ratio of oxacillin sodium MIC to test compound MIC for penicillin-susceptible Streptococcus pyogenes; assay type: functional
Staphylococcus aureus [26] = assay: Bactericidal activity against penicillin-susceptible Staphylococcus aureus ATCC 25923 assessed as bacterial levels at 32 ug/ml after 2 hrs by time-kill assay (reference value: 6.13 to 6.17 log10CFU/ml); assay type: functional

## Cc1cc(-c2ccc(C(F)(F)F)cc2)cc2c3ccccc3c[n+](C)c12.[Cl-]
Bacillus subtilis [1]
  Ratio: 33
Staphylococcus aureus [2]
  Ratio: 256
Pseudomonas aeruginosa
  MIC: > 64 µg/mL
Streptococcus pyogenes [3]
  MIC: 1 µg/mL
Staphylococcus aureus [4]
  Activity: 0 log10CFU/ml
Staphylococcus aureus [5]
  Activity: 5.78 log10CFU/ml
Staphylococcus aureus [6]
  MIC: 0.06 µg/mL
[7]
  inhibition: Active
Staphylococcus aureus [8]
  MIC: 0.25 µg/mL
Staphylococcus aureus [9]
  Ratio: 67
Staphylococcus aureus [10]
  Activity: 4 log10CFU/ml
[11]
  Ratio: 512
Staphylococcus aureus [12]
  Activity: 6.06 log10CFU/ml
Staphylococcus aureus [13]
  Activity: 0 log10CFU/ml
Staphylococcus aureus [14]
  Activity: 5.88 log10CFU/ml
Staphylococcus aureus [15]
  Activity: 6 log10CFU/ml
Bacillus pumilus
  MIC: 0.06 µg/mL
Staphylococcus aureus [16]
  Activity: 5.75 log10CFU/ml
Staphylococcus aureus [17]
  Activity: 6.05 log10CFU/ml
[18]
  inhibition: Active
Staphylococcus aureus [19]
  Activity: 4 log10CFU/ml
Staphylococcus aureus [20]
  Activity: 6.04 log10CFU/ml
Streptococcus pyogenes [21]
  Ratio: 32
Bacillus subtilis [22]
  Ratio: 67
[23]
  Ratio: 512
Bacillus subtilis [24]
  MIC: 0.06 µg/mL
Streptococcus pyogenes [25]
  Ratio: 1
Staphylococcus aureus [26]
  Activity: 5.18 log10CFU/ml
